Like-named read-outs stand apart in the source and are kept apart here. No end group written: not given here.
Assays:
[1] = test system: P. mirabilis (XDR CI 3423); assay: microbe, parasite or virus in culture; assay type: cell-based, Proteus mirabilis; settings: Table S2, XDR clinical isolate; NaCl content of medium not stated; read-out: Minimum inhibitory concentration
Experimental: (§1) Antimicrobial assay was performed as described previously ([Panteleev et al., 2017b]). Briefly, mid-log phase bacterial test cultures were diluted with the 2× Mueller-Hinton broth (MH, Sigma) supplemented with 1.8% NaCl or without it so that to reach a final cell concentration of 10^6 CFU/ml. 50 μl aliquots of the obtained bacterial suspension were added to 50 μl of the peptide solutions serially diluted with 0.1% water solution of bovine serum albumin (BSA) in 96-well flat-bottom polystyrene microplates (Eppendorf #0030730011). After incubation at 37°C and 900 rpm for 24 h the minimum inhibitory concentrations (MIC) were determined as the lowest peptide concentrations that prevented growth of a test microorganism observed as visible turbidity. The results were expressed as the median values determined on the basis of at least three independent experiments performed in triplicate.

[2] = test system: A. baumannii (XDR CI 2675); assay: microbe, parasite or virus in culture; assay type: cell-based, Acinetobacter baumannii; settings: read-out: Minimum inhibitory concentration
Experimental: as §1

[3] = test system: E. coli C600; assay type: cell-based, Escherichia coli
Experimental: as §1
(§2) The peptides were twofold serially diluted with 0.1% BSA in 96-well microplates (Eppendorf #0030730011). Then, the peptide solutions were mixed in the new test plate crosswise in such a way that the resulting checkerboard contained each combination of the cathelicidins in eight doubly increasing concentrations, with wells containing the highest concentration of each peptide at opposite corners ([Berditsch et al., 2015]). Then, the antimicrobial assay was performed as described in the previous section. […] The results were expressed as the median values determined on the basis of three independent experiments performed in duplicate. Estimation of synergistic effects of different cathelicidins was performed by calculating the fractional inhibitory concentration index (FICI) according to the equation: FICI = [À]/MICÀ + [B]/MICB, where MICÀ and MICB are the MICs of the individual substances, while [A] and [B] are the MICs of A and B when used together. A synergistic effect was defined at a FICI ≤ 0.5.

[4] = test system: E. coli (CI 214); assay type: cell-based, Escherichia coli; settings: CI 214, 24 h
Experimental: as §1, §2

[5] = test system: E. cloacae (XDR CI 4172); assay: microbe, parasite or virus in culture; assay type: cell-based, Enterobacter cloacae; settings: read-out: Minimum inhibitory concentration
Experimental: as §1

[6] = test system: human red blood cells (hRBC); assay: Hemolysis (hemoglobin release assay); assay type: cell-based; settings: 1.5 h incubation, hRBC of 3 independent donors
Experimental: (§3) Hemolytic activity of the peptides was tested against the fresh suspension of human red blood cells (hRBC) using the hemoglobin release assay as described previously ([Panteleev et al., 2016]). Three experiments were performed with the hRBC from blood samples obtained from independent donors. The obtained data were represented as average means with standard deviations. The cytotoxicity of the peptides against HEK293T (transformed human embryonic kidney cells) and HEF (human embryonic fibroblasts) cell lines was studied using the colorimetric 3-(4,5-dimethylthiazol-2-yl)-2,5-diphenyltetrazolium bromide (MTT) dye reduction assay according to ([Panteleev and Ovchinnikova, 2017]). Three independent experiments were performed for each peptide. Half maximal inhibitory concentration (IC50) values were estimated as described previously ([Kuzmin et al., 2018]).

[7] = test system: S. aureus 209P; assay type: cell-based, Staphylococcus aureus; settings: 24 h
Experimental: as §1, §2

[8] = test system: E. cloacae (XDR CI 4172); assay type: cell-based, Enterobacter cloacae; settings: for Fractional inhibitory concentration (FICA, FICB): [X]/MICX; for Fractional inhibitory concentration (FICA, FICB) / MIC of the peptide when used together ([A], [B]): 0.9% NaCl; for MIC of the peptide when used together ([A], [B]): in the mix ChMAP-28 + mini-ChBac7.5Nα, other peptide at sub-inhibitory concentration; for MIC of the individual peptide (MICA, MICB): peptide used individually, medium with physiological NaCl (0.9%), median of 3 experiments in duplicate
Experimental: as §1, §2

[9] = test system: HEK293T cells; assay: Cytotoxicity (MTT assay); assay type: cell-based, human; settings: 24 h incubation, 3 independent experiments, read-out: IC50 against HEK293T cells
Experimental: as §3

[10] = test system: K. pneumoniae (XDR CI 1056); assay: microbe, parasite or virus in culture; assay type: cell-based, Klebsiella pneumoniae; settings: Table S2, XDR clinical isolate; NaCl content of medium not stated; read-out: Minimum inhibitory concentration
Experimental: as §1

[11] = test system: P. aeruginosa PAO1; assay type: cell-based, Pseudomonas aeruginosa; settings: PAO1, 24 h
Experimental: as §1
The peptides were twofold serially diluted with 0.1% BSA in 96-well microplates (Eppendorf #0030730011). […] The results were expressed as the median values determined on the basis of three independent experiments performed in duplicate. […]

[12] = test system: P. aeruginosa (XDR CI 1049); assay: microbe, parasite or virus in culture; assay type: cell-based, Pseudomonas aeruginosa; settings: Table S2, XDR clinical isolate; NaCl content of medium not stated; read-out: Minimum inhibitory concentration
Experimental: as §1

[13] = test system: E. coli (CI 214); assay type: cell-based, Escherichia coli; settings: CI 214, 24 h; remark: listed apart in the source
In short: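 Serial peptide dilutions (0.1% BSA diluent) were challenged with an equal part of mid-log culture in 2× MH broth, ±1.8% NaCl, giving 10^6 CFU/ml. Incubation: 24 h, 37°C, 900 rpm. Reported MIC = median, ≥3 experiments.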

[14] = test system: mammalian cell lines (HEK293T, HEF); assay: Cytotoxicity (MTT assay); assay type: cell-based, human; settings: HEK293T and HEF, 24 h incubation
Experimental: as §3

[15] = test system: E. faecalis ATCC 29212; assay type: cell-based, Enterococcus faecalis; settings: ATCC 29212, 24 h
Experimental: Briefly, mid-log phase bacterial test cultures were diluted with the 2× Mueller-Hinton broth (MH, Sigma) supplemented with 1.8% NaCl or without it so that to reach a final cell concentration of 10^6 CFU/ml. 50 μl aliquots of the obtained bacterial suspension were added to 50 μl of the peptide solutions serially diluted with 0.1% water solution of bovine serum albumin (BSA) in 96-well flat-bottom polystyrene microplates (Eppendorf #0030730011). […] The results were expressed as the median values determined on the basis of at least three independent experiments performed in triplicate.

[16] = 0.9% NaCl, Mueller-Hinton broth, 10^6 CFU/ml, 0.1% BSA, 37°C, 24 h, median of at least 3 experiments
[17] = Table S2, XDR clinical isolate, NaCl content of medium not stated
[18] = Without NaCl, Mueller-Hinton broth, 10^6 CFU/ml, 0.1% BSA, 37°C, 24 h, median of at least 3 experiments

| Sequence | MIC [2, 16] [µM] | MIC [2, 18] [µM] | MIC of the individual peptide (MICA, MICB) [4] [µM] | MIC [5, 16] [µM] | MIC [5, 18] [µM] | Fractional inhibitory concentration (FICA, FICB) [7] | MIC of the individual peptide (MICA, MICB) [7] [µM] | Fractional inhibitory concentration (FICA, FICB) [8] | MIC of the peptide when used together ([A], [B]) [8] [µM] | MIC of the individual peptide (MICA, MICB) [8] [µM] | other results |
| --- | --- | --- | --- | --- | --- | --- | --- | --- | --- | --- | --- |
| GRFKRFRKKLKRLWHKVGPFVGPILHY [ChMAP-28] | 0.25 | 0.03 | 0.06 | 0.25 | 0.125 | 0.063 | 0.5 | 0.125 | 0.03 | 0.25 | MIC [1]: 0.5 µM; MIC [2, 17]: 0.25 µM; Fractional inhibitory concentration (FICA, FICB) ([3]; [X]/MICX, 0.9% NaCl): 0.125-0.25; MIC of the individual peptide (MICA, MICB) ([3]; peptide used individually, medium with physiological NaCl (0.9%), median of 3 experiments in duplicate): 0.125 µM; Fractional inhibitory concentration (FICA, FICB) [4]: 0.25; MIC [5, 17]: 0.25 µM; half maximal hemolysis concentration (HC50) ([6]; hemoglobin release): ~100 µM; IC50 [9]: ~3.5 µM; MIC [10]: 0.125 µM; Fractional inhibitory concentration (FICA, FICB) [11]: 0.5; MIC [12]: 0.5 µM |
| RRLRPRRPRLPRPRPRPRPRPR [mini-ChBac7.5Nα] | >32 | 2 | >64 | 4 | 1 | 0.125 | 16 | 0.125 | 0.5 | 4 | Fractional inhibitory concentration (FICA, FICB) ([3]; C600, 24 h): 0.25; MIC of the individual peptide (MICA, MICB) ([3]; C600, 24 h): 4 µM; MIC [13]: 4 µM; red blood cells lysed ([6]; at the concentration of 100 μM): 2%; concentrations at which cytotoxic activity was shown [14]: > 25 µM; Minimum inhibitory concentration [15]: >32 µM; MIC of the individual peptide (MICA, MICB) [11]: >32 µM |
